According to patent EP3970494A1 (priority 2020, dated 2022):

Experiments:
Experiment in all cases: microbe, parasite or virus in culture
Format in all cases: cell-based
[1] = tested on: Phytophthora infestans; conditions: 168 h, read-out: Fungal growth at 31 ppm (%) PHYTIN
[2] = tested on: Fusarium culmorum; conditions: 168 h
[3] = tested on: Septoria tritici; conditions: Zymoseptoria tritici, 168 h

SMILES: CNC(=O)/C(=N/OC)c1cccc(C)c1CO/N=C(\C)c1cc(-c2ccc(F)cc2)sn1 [Example 12, (2E)-2-[2-[[(E)-1-[5-(4-Fluorophenyl)isothiazol-3-yl]ethylideneamino]oxymethyl]-3-methyl-phenyl]-2-methoxyimino-N-methyl-acetamide]
- activity at 31 ppm [1]: 2%
- activity at 31 ppm [2]: 11%

SMILES: CNC(=O)/C(=N/OC)c1cccc(C)c1CO/N=C(\C)c1cc(-c2cccc(C(F)(F)F)c2)sn1 [Example 39]
- activity at 31 ppm [1]: 8%
- activity at 31 ppm [2]: 14%

SMILES: CNC(=O)/C(=N/OC)c1cccc(C)c1CO/N=C(\C)c1ccc(C#CC2CC2)cn1 [Example 112]
- activity at 31 ppm [1]: 2%
- activity at 31 ppm [2]: 21%

SMILES: CNC(=O)/C(=N/OC)c1cccc(C)c1CO/N=C(\C)c1nc(C(F)(F)F)cs1 [Example 95]
- activity at 31 ppm [2]: 17%

SMILES: CO/N=C(/C(=O)OC)c1cccc(C)c1CO/N=C(\C)c1ccncc1 [Example 130]
- activity at 31 ppm [1]: 0%
- activity at 31 ppm [2]: 17%

SMILES: CO/N=C(/C(=O)OC)c1cccc(C)c1CO/N=C(\C)c1cc(-c2ccccc2)sn1 [Example 36]
- activity at 31 ppm [1]: 10%

SMILES: CNC(=O)/C(=N/OC)c1cccc(C)c1CO/N=C(\C)c1cc(C(F)(F)F)c(C#N)cn1 [Example 99]
- activity at 31 ppm [1]: 20%

SMILES: CNC(=O)/C(=N/OC)c1cccc(C)c1CO/N=C(\C)c1cc(C(F)F)nc(C)n1 [Example 62]
- activity at 31 ppm [1]: 0%
- activity at 31 ppm [2]: 11%

SMILES: CNC(=O)/C(=N/OC)c1cccc(C)c1CO/N=C(\C)c1cc(N2CC(F)(F)C2)ccn1 [Example 90]
- activity at 31 ppm [1]: 0%

SMILES: CO/N=C(/C(=O)OC)c1cccc(C)c1CO/N=C(\C)c1cc(-c2ccc(F)cc2)on1 [Example 14]
- activity at 31 ppm [2]: 20%

SMILES: CO/N=C(/C(=O)OC)c1cccc(C)c1CO/N=C(\C)c1cc(-c2ccccc2)on1 [Example 21]
- activity at 31 ppm [1]: 5%

SMILES: CO/N=C(/C(=O)OC)c1cccc(C)c1CO/N=C(\C)c1cscn1 [Example 126]
- activity at 31 ppm [1]: 0%

SMILES: CO/N=C(/C(=O)OC)c1cccc(C)c1CO/N=C(\C)c1cncc(F)c1 [Example 75]
- activity at 31 ppm [1]: 0%

SMILES: CNC(=O)/C(=N/OC)c1cccc(C)c1CO/N=C(\C)c1ccc(Cl)nn1 [Example 92]
- activity at 31 ppm [1]: 0%
- activity at 31 ppm [2]: 17%

SMILES: CNC(=O)/C(=N/OC)c1cccc(C)c1CO/N=C(\C)c1cn(C)nc1C(F)(F)F [Example 52]
- activity at 31 ppm [2]: 12%

SMILES: CNC(=O)/C(=N/OC)c1cccc(C)c1CO/N=C(\C)c1ccc(C#CC2CC2)nc1 [Example 69]
- activity at 31 ppm [1]: 0%
- activity at 31 ppm [2]: 11%

SMILES: CO/N=C(/C(=O)OC)c1cccc(C)c1CO/N=C(\C)c1cn(C)nc1C(F)F [Example 49]
- activity at 31 ppm [1]: 0%
- activity at 31 ppm [2]: 17%

SMILES: CNC(=O)/C(=N/OC)c1cccc(C)c1CO/N=C(\C)c1csc(C(F)(F)F)n1 [Example 115]
- activity at 31 ppm [1]: 0%
- activity at 31 ppm [2]: 13%

SMILES: C=Cc1cnc(/C(C)=N/OCc2c(C)cccc2/C(=N\OC)C(=O)NC)s1 [Example 144]
- activity at 31 ppm [2]: 14%

SMILES: CNC(=O)/C(=N/OC)c1cccc(C)c1CO/N=C(\C)c1ccncc1 [Example 134]
- activity at 31 ppm [1]: 0%
- activity at 31 ppm [2]: 20%

SMILES: CNC(=O)/C(=N/OC)c1cccc(C)c1CO/N=C(\C)c1cc(C#N)cc(Cl)n1 [Example 63]
- activity at 31 ppm [1]: 0%
- activity at 31 ppm [2]: 18%

SMILES: CNC(=O)/C(=N/OC)c1cccc(C)c1CO/N=C(\C)c1cc(C(F)(F)F)cc(C)n1 [Example 80]
- activity at 31 ppm [1]: 0%
- activity at 31 ppm [2]: 16%

SMILES: CO/N=C(/C(=O)OC)c1cccc(C)c1CO/N=C(\C)c1ncc(-c2ccc(F)cc2)s1 [Example 79, Methyl (2E)-2-[2-[[(E)-1-[5-(4-fluorophenyl)thiazol-2-yl]ethylideneamino]oxymethyl]-3-methyl-phenyl]-2-methoxyimino-acetate]
- activity at 31 ppm [1]: 17%
- activity at 31 ppm [2]: 13%

SMILES: CO/N=C(/C(=O)OC)c1cccc(C)c1CO/N=C(\C)c1cc(-c2ccc(F)cc2)sn1 [Example 11, Methyl (2E)-2-[2-[[(E)-1-[5-(4-fluorophenyl)isothiazol-3-yl]ethylideneamino]oxymethyl]-3-methyl-phenyl]-2-methoxyimino-acetate]
- activity at 31 ppm [3]: 10%

SMILES: CNC(=O)/C(=N/OC)c1cccc(C)c1CO/N=C(\C)c1cc(-c2ccccc2)on1 [Example 23]
- activity at 31 ppm [1]: 1%
- activity at 31 ppm [2]: 5%

SMILES: CO/N=C(/C(=O)OC)c1cccc(C)c1CO/N=C(\C)c1ncccc1C(F)(F)F [Example 27, Methyl (2E)-2-methoxyimino-2-[3-methyl-2-[[(E)-1-[3-(trifluoromethyl)-2-pyridyl]-ethylideneamino]oxymethyl]phenyl]acetate]
- activity at 31 ppm [3]: 5%

SMILES: CO/N=C(/C(=O)OC)c1cccc(C)c1CO/N=C(\C)c1ccc(Cl)c(C(F)(F)F)c1 [Example 82]
- activity at 31 ppm [1]: 3%
- activity at 31 ppm [2]: 17%

SMILES: CNC(=O)/C(=N/OC)c1cccc(C)c1CO/N=C(/c1nccs1)C(F)F [Example 154]
- activity at 31 ppm [2]: 14%

SMILES: CNC(=O)/C(=N/OC)c1cccc(C)c1CO/N=C(\C)c1cccc(C)n1 [Example 81]
- activity at 31 ppm [1]: 0%
- activity at 31 ppm [2]: 9%

SMILES: CNC(=O)/C(=N/OC)c1cccc(C)c1CO/N=C(\C)c1cn(C)nc1C(F)F [Example 50]
- activity at 31 ppm [1]: 0%
- activity at 31 ppm [2]: 18%

SMILES: CO/N=C(/C(=O)OC)c1cccc(C)c1CO/N=C(\C)c1ncc(C(F)(F)F)s1 [Example 123, Methyl (2E)-2-methoxyimino-2-[3-methyl-2-[[(E)-1-[5-(trifluoromethyl)thiazol-2-yl]-ethylideneamino]oxymethyl]phenyl]acetate]
- activity at 31 ppm [2]: 17%

SMILES: CNC(=O)/C(=N/OC)c1cccc(C)c1CO/N=C(\C)c1cncc(F)c1 [Example 76]
- activity at 31 ppm [1]: 0%
- activity at 31 ppm [2]: 16%

SMILES: CO/N=C(/C(=O)OC)c1cccc(C)c1CO/N=C(\C)c1cc(C(F)(F)F)cc(Cl)n1 [Example 42]
- activity at 31 ppm [2]: 10%

SMILES: CNC(=O)/C(=N/OC)c1cccc(C)c1CO/N=C(\C)c1cncc(C(F)(F)F)n1 [Example 89, (2E)-2-Methoxyimino-N-methyl-2-[3-methyl-2-[[(E)-1-[6-(trifluoromethyl)pyrazin-2-yl]ethylideneamino]oxymethyl]phenyl]acetamide]
- activity at 31 ppm [1]: 0%
- activity at 31 ppm [2]: 13%

SMILES: CNC(=O)/C(=N/OC)c1cccc(C)c1CO/N=C(\C)c1ncc(C(F)(F)F)s1 [Example 53, (2E)-2-Methoxyimino-N-methyl-2-[3-methyl-2-[[(E)-1-[5-(trifluoromethyl)thiazol-2-yl]ethylideneamino]oxymethyl]phenyl]acetamide]
- activity at 31 ppm [2]: 21%

SMILES: C#Cc1cnc(/C(C)=N/OCc2c(C)cccc2/C(=N\OC)C(=O)NC)s1 [Example 61]
- activity at 31 ppm [1]: 19%
- activity at 31 ppm [2]: 11%

SMILES: CNC(=O)/C(=N/OC)c1cccc(C)c1CO/N=C(\C)c1cccnc1 [Example 135]
- activity at 31 ppm [1]: 0%
- activity at 31 ppm [2]: 19%

SMILES: CO/N=C(/C(=O)OC)c1cccc(C)c1CO/N=C(\C)c1ccc(C#CC2CC2)cn1 [Example 111]
- activity at 31 ppm [1]: 15%

SMILES: CNC(=O)/C(=N/OC)c1cccc(C)c1CO/N=C(\C)c1ncccc1F [Example 77]
- activity at 31 ppm [1]: 0%
- activity at 31 ppm [2]: 11%

SMILES: CNC(=O)/C(=N/OC)c1cccc(C)c1CO/N=C(\C)c1cncc(C(F)(F)F)c1 [Example 85, (2E)-2-methoxyimino-N-methyl-2-[3-methyl-2-[[(E)-1-[5-(trifluoromethyl)-3-pyridyl]-ethylideneamino]oxymethyl]phenyl]acetamide]
- activity at 31 ppm [1]: 0%
- activity at 31 ppm [2]: 16%

SMILES: CNC(=O)/C(=N/OC)c1cccc(C)c1CO/N=C(\C)c1ccnc(C(F)(F)F)c1 [Example 48]
- activity at 31 ppm [1]: 1%
- activity at 31 ppm [2]: 17%

SMILES: CNC(=O)/C(=N/OC)c1cccc(C)c1CO/N=C(\C)c1cscn1 [Example 127]
- activity at 31 ppm [1]: 0%

SMILES: CNC(=O)/C(=N/OC)c1cccc(C)c1CO/N=C(\C)c1cc(-c2cccc(C(F)(F)F)c2)on1 [Example 22, (2E)-2-Methoxyimino-N-methyl-2-[3-methyl-2-[[(E)-1-[5-[3-(trifluoromethyl)phenyl]-isoxazol-3-yl]ethylideneamino]oxymethyl]phenyl]acetamide]
- activity at 31 ppm [1]: 17%

SMILES: CO/N=C(/C(=O)OC)c1cccc(C)c1CO/N=C(\C)c1cc(-c2ccc(Cl)cc2)on1 [Example 18]
- activity at 31 ppm [2]: 16%

SMILES: CNC(=O)/C(=N/OC)c1cccc(C)c1CO/N=C(\C)c1cc(C(F)(F)F)cc(C#N)n1 [Example 86]
- activity at 31 ppm [1]: 0%
- activity at 31 ppm [2]: 16%

SMILES: CNC(=O)/C(=N/OC)c1cccc(C)c1CO/N=C(\C)c1cc(-c2ccc(F)cc2)on1 [Example 15]
- activity at 31 ppm [1]: 0%
- activity at 31 ppm [2]: 20%

SMILES: CNC(=O)/C(=N/OC)c1cccc(C)c1CO/N=C(/c1nccs1)C1CC1 [Example 110]
- activity at 31 ppm [1]: 0%

SMILES: CO/N=C(/C(=O)OC)c1cccc(C)c1CO/N=C(\C)c1cc(C(F)(F)F)nn1C [Example 117, Methyl (2E)-2-methoxyimino-2-[3-methyl-2-[[(E)-1-[2-methyl-5-(trifluoromethyl)pyrazol-3-yl]ethylideneamino]oxymethyl]phenyl]acetate]
- activity at 31 ppm [2]: 18%

SMILES: CNC(=O)/C(=N/OC)c1cccc(C)c1CO/N=C(\C)c1cccc(F)n1 [Example 107]
- activity at 31 ppm [1]: 0%
- activity at 31 ppm [2]: 16%

SMILES: CO/N=C(/C(=O)OC)c1cccc(C)c1CO/N=C(\C)c1ccccn1 [Example 129]
- activity at 31 ppm [1]: 0%

SMILES: CO/N=C(/C(=O)OC)c1cccc(C)c1CO/N=C(\C)c1cnccc1C(F)(F)F [Example 155]
- activity at 31 ppm [2]: 18%

SMILES: CNC(=O)/C(=N/OC)c1cccc(C)c1CO/N=C(\C)c1cnc(C(F)(F)F)cn1 [Example 97, (2E)-2-methoxyimino-N-methyl-2-[3-methyl-2-[[(E)-1-[5-(trifluoromethyl)pyrazin-2-yl]ethylideneamino]oxymethyl]phenyl]acetamide]
- activity at 31 ppm [1]: 0%
- activity at 31 ppm [2]: 17%

SMILES: CNC(=O)/C(=N/OC)c1cccc(C)c1CO/N=C(\C)c1ncc(-c2ccc(F)cc2)s1 [Example 78, (2E)-2-[2-[[(E)-1-[5-(4-fluorophenyl)thiazol-2-yl]ethylideneamino]oxymethyl]-3-methyl-phenyl]-2-methoxyimino-N-methyl-acetamide]
- activity at 31 ppm [1]: 3%
- activity at 31 ppm [2]: 16%
